This note sets out measurements from patent US20100234766A1, “Topical administration of a salt compound to facilitate venipuncture” (priority 2006, published 2010).

The subject of one assay is vein of the inner elbow. The experiment in a line: Vein diameter from visible light images after swabbing, arm stationary (Examples 3 and 4).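 On all read-outs here: agents applied to skin over the inner elbow vein with the arm resting still on a table, diameter read in pixels from images taken before and nine minutes after.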 The conditions noted are these: for AVERAGE % CHANGE IN VEIN DIAMETER: nine minutes following application; for Diameter Post-Application / Diameter Pre-Application / Percent change (vein diameter): Example 3; for Diameter Post-Application: endpoint image nine minutes following application, concentration as in test agent label; for Diameter Pre-Application: initial image prior to application of test agent (baseline); for Percent change (vein diameter): nine minutes following application versus pre-application; for vasodilation of the vein of the elbow (in words): summary of Table 4, salts at 10 mM.

For assay [1], the system named is veins visible on the dorsum of the hand. The experiment in a line: Peripheral venous filling time after topical application (Example 1). It is filed as in vivo, human. The conditions noted are these: for VENOUS FILL TIME: average of two subjects; for effect on venous fill time (in words): topical application, dorsum of hand, summary of Table 1. The protocol:
Several studies were conducted to determine the effect of topically applied compounds on peripheral venous filling. The same two healthy adult male volunteer subjects were used for each of the studies.
In each study, a baseline value for peripheral venous filling time was determined as follows. Each subject held their outstretched arm vertically with hand directed upwards toward the ceiling for a period of time sufficient to cause the veins visible on the dorsum of the hand to attain their minimum dilation. Then, the subject lowered their hand and held their outstretched arm vertically with hand directed downwards toward the floor for a period of time sufficient to cause the veins visible on the dorsum of the hand to attain their maximum dilation. The time for the veins to attain maximum dilation following the lowering of the hands was measured.
This procedure was repeated following application of a test compound to the site of visible veins on the dorsum of the hands in order to determine the effect of the test compound on venous filling. Longer venous filling times are indicative of vasodilation and increased pooling of blood within the vein.

The subject of another assay is dorsal hand veins. The experiment in a line: Infrared thermal imaging of dorsal hand veins after swabbing and hand elevation (Example 2). It is filed as in vivo, human. The protocol:
Infrared (IR) thermal imaging utilizing a standardized, calibrated infrared (950 nm wavelength) camera acquiring electronic images and providing color coded maps for testing effects of test vasodilator chemical compounds on dorsal hand veins was performed in three male and two female healthy volunteers. Infrared was utilized to determine the degree to which the test chemical compounds cause vasodilation because infrared provides a measure of thermal gradient and diameter that correlates well with visual indications of increased venous size and with successful first attempt venipuncture. Test agents were applied by swabbing the target area for about 30 seconds. A baseline control without application of any swab or by swabbing with a placebo swab containing no liquid was performed at the start of each test as a basis to compare imaging of the vein dilator dependent filling. IR images were obtained using a standardized, calibrated infrared (950 nm wavelength) camera that acquired an electronic image and provided a color coded thermal map. […] The swab was rubbed onto the dorsal surface of a hand of each subject and then the hand was elevated for 2 minutes after which the hand was returned to a horizontal position. IR imaging was performed on the dorsum of the hand before elevation and at intervals following the return to the horizontal position.

[2] abbreviates: Example 4, 10 mM, one to three subjects.
The mark [3] stands for this setting: Study 1, baseline (none) 54 sec, EtOH 70%, MgCl2 100 mM.
[4] abbreviates: Study 3, baseline (none) 51 sec, EtOH 70%, MgSO4 10 mM.
Setting [5] is: Study 4, baseline (none) 39 sec, MgSO4 10 mM.

Experimental for vein of the inner elbow: Studies in Example 2 were performed except that the vein of the inner elbow, the site most frequently used for phlebotomy, was evaluated and vein diameter was measured from enlarged, sequential, visible light images. […] Instead the response to swabbing was recorded with the arm in a stationary position resting on a table top.
The initial image was taken prior to application of each test agent. The endpoint image was taken nine minutes following application of the test agent. The vein diameters were measured in pixels.
The procedure of Example 3 was repeated utilizing swabs impregnated with various salt compounds on one to three adult male and female subjects. Each test compound was applied to the skin overlying the vein of the inner elbow. The initial image was taken prior to application of each test agent. The endpoint image was taken nine minutes following application of the test agent. The vein diameters were measured in pixels.

Regarding `[Ca+2].[Cl-].[Cl-]` [10 mM CaCl2, CaCl2], the “AVERAGE % CHANGE IN VEIN DIAMETER” value with vein of the inner elbow (setting [2]) came to 12.0%.
Consider “benzalkonium chloride [1% benzalkonium chloride, reference compound]”, for which, in the assay on vein of the inner elbow, the “Diameter Post-Application” value worked out at 37.80 pixels, the “Diameter Pre-Application” value came to 34.41 pixels and the “Percent change (vein diameter)” value is reported as 9.85%.
Consider `O=S(=O)([O-])[O-].[Ca+2]` [10 mM CaSO4, CaSO4], for which the “AVERAGE % CHANGE IN VEIN DIAMETER” value with vein of the inner elbow (setting [2]) is 17.7%.
On to `O=S(=O)([O-])[O-].[Mn+2]` [10 mM MnSO4, MnSO4], for which the “AVERAGE % CHANGE IN VEIN DIAMETER” value in the assay with vein of the inner elbow (setting [2]) was 0.0%.
`[Cl-].[Cl-].[Mg+2]` [MgCl2]: in assay [1] (setting [3]), the “VENOUS FILL TIME” value came out at 158 s and the “% CHANGE FROM BASELINE (venous fill time)” value (shortened to “% CHANGE FROM BASELINE”) was 190%. In addition, in assay [1], the “effect on venous fill time (in words)” value is recorded as “substantial increases in venous filling time compared to baseline control”. Moreover, the “AVERAGE % CHANGE IN VEIN DIAMETER” value with vein of the inner elbow (setting [2]) amounted to 6.5%.
Regarding `O=C([O-])CC(O)(CC(=O)[O-])C(=O)[O-].O=C([O-])CC(O)(CC(=O)[O-])C(=O)[O-].[Mg+2].[Mg+2].[Mg+2]` [10 mM Mg citrate, Mg citrate], in the assay on vein of the inner elbow (setting [2]), the “AVERAGE % CHANGE IN VEIN DIAMETER” value was 4.2%.
Take `CC(=O)[O-].CC(=O)[O-].[Mn+2]` [10 mM Mn acetate, Mn acetate]: the “AVERAGE % CHANGE IN VEIN DIAMETER” value in the assay with vein of the inner elbow (setting [2]) is 0.0%.
On to `CC(=O)[O-].CC(=O)[O-].[Sr+2]` [10 mM Sr acetate, Sr acetate], for which the “AVERAGE % CHANGE IN VEIN DIAMETER” value in the assay on vein of the inner elbow (setting [2]) is on record as 7.35%.
As to `[Cl-].[Cl-].[Sr+2]` [10 mM SrCl2, SrCl2], the “AVERAGE % CHANGE IN VEIN DIAMETER” value in the assay on vein of the inner elbow (setting [2]) was −6.0%. For the same compound, the “vasodilation of the vein of the elbow (in words)” value (from here on “vasodilation”) in the assay with vein of the inner elbow (Example 4) is on record as “did not show vasodilation”.
On to `CC(=O)[O-].CC(=O)[O-].[Ca+2]` [10 mM Ca acetate, Ca acetate], for which the “AVERAGE % CHANGE IN VEIN DIAMETER” value with vein of the inner elbow (setting [2]) is given as −0.5%. The “vasodilation” value with vein of the inner elbow (Example 4) is reported as “did not show vasodilation”.
Consider `O=S(=O)([O-])[O-].[Zn+2]` [10 mM ZnSO4, ZnSO4], for which the “AVERAGE % CHANGE IN VEIN DIAMETER” value in the assay on vein of the inner elbow (setting [2]) was −4.4%. Besides, in the assay with vein of the inner elbow (Example 4), the “vasodilation” value is “failed to demonstrate vasodilation”.
On to `CCO` [EtOH, ethyl alcohol], for which, in assay [1] (setting [3]), the “VENOUS FILL TIME” value amounted to 59 s and the “% CHANGE FROM BASELINE” value is on record as 9%. In addition, in assay [1] (setting [4]), the “VENOUS FILL TIME” value was 38 s and the “% CHANGE FROM BASELINE” value is “(−25) %”. For the same compound, the “decrease in fill time” value in assay [1] (study 3, EtOH 70%, versus baseline) stood at 25%. In addition, the “effect on venous fill time (in words)” value in assay [1] is reported as “no effect on venous fill time”.
Regarding `CC(=O)[O-].CC(=O)[O-].[Mg+2]` [10 mM Mg acetate, Mg acetate], the “AVERAGE % CHANGE IN VEIN DIAMETER” value in the assay on vein of the inner elbow (setting [2]) was 27.9%.
With `O=S(=O)([O-])[O-].[Sr+2]` [10 mM SrSO4, SrSO4], the “AVERAGE % CHANGE IN VEIN DIAMETER” value with vein of the inner elbow (setting [2]) stood at 16.95%.
For the compound `O=S(=O)([O-])[O-].[Mg+2]` [MgSO4, magnesium sulfate], the “effect on venous fill time (in words)” value in assay [1] was “substantial increases in venous filling time compared to baseline control”. For the same compound, in the assay on vein of the inner elbow, the “Diameter Post-Application” value is recorded as 73.06 pixels. In the assay with vein of the inner elbow, the “Diameter Pre-Application” value came to 65.86 pixels. The “Percent change (vein diameter)” value in the assay with vein of the inner elbow was 10.93%. Moreover, the “AVERAGE % CHANGE IN VEIN DIAMETER” value in the assay with vein of the inner elbow (setting [2]) stood at 30.0%; with vein of the inner elbow (Example 4, 100 mM), 25.2%; in the assay with vein of the inner elbow (Example 4, 1 M) it was 22.9%. This compound also registered an optimal concentration in the assay with vein of the inner elbow (Example 4, from 10 mM, 100 mM and 1 M tested) of 10 mM. In the assay on vein of the inner elbow (Example 4), the “vasodilation” value was “powerful vasodilator”. In addition, in the assay on dorsal hand veins (MgSO4 10 mM in water, benzalkonium chloride 1%, maximal dilation after return to horizontal, control (dry swab) <10%), the “Increase in Venous Diameter Following Hand Elevation” value turned out to be 30%.
On to `O=S(=O)([O-])[O-].[Cu+2]` [10 mM CuSO4, CuSO4], for which, in the assay on vein of the inner elbow (setting [2]), the “AVERAGE % CHANGE IN VEIN DIAMETER” value is given as 20.95%.
For the compound `[Cl][Mn][Cl]` [10 mM MnCl2, MnCl2], the “AVERAGE % CHANGE IN VEIN DIAMETER” value in the assay with vein of the inner elbow (setting [2]) is 2.7%. Moreover, in the assay on vein of the inner elbow (Example 4), the “vasodilation” value is “mild vasodilation”.
Turning to `CC(C)O` [Isopropyl alcohol, isopropyl alcohol, reference compound], in assay [1] (setting [5]), the “VENOUS FILL TIME” value is 69 s and the “% CHANGE FROM BASELINE” value was 76%. Also, the “effect on venous fill time (in words)” value in assay [1] is “increased venous fill time”. Moreover, in the assay with vein of the inner elbow, the “Diameter Post-Application” value turned out to be 55.04 pixels, the “Diameter Pre-Application” value turned out to be 57.78 pixels and the “Percent change (vein diameter)” value is “(−4.74) Percent”. For the same compound, the “AVERAGE % CHANGE IN VEIN DIAMETER” value with vein of the inner elbow (Example 4, 70%) is recorded as −13.2%. In addition, in the assay on vein of the inner elbow (Example 4), the “vasodilation” value is “constriction of the underlying vein”. In the assay with dorsal hand veins (Example 2a, compared to dry swab control, 30 seconds following return to horizontal, 70% isopropyl alcohol), the “effect on dorsal hand veins on IR examination (in words), early” value is given as “initial vasoconstriction with reduced filling of the veins on the dorsum of the hand”.
For `[Cl][Cu][Cl]` [10 mM CuCl2, CuCl2], the “AVERAGE % CHANGE IN VEIN DIAMETER” value in the assay with vein of the inner elbow (setting [2]) was found to be 10.5%.
